Assays:
[1] = DPPH radical scavenging activity; conditions: 0.1 mM DPPH in methanol, 37°C, 30 min
Description: This assay was conducted as previously described by Wen et al. with some modifications. DPPH was freshly prepared in methanol at a concentration of 0.1 mM. The solution (20 μL) containing the tested compounds with different concentrations was added into the DPPH solution (180 μL) in the 96-well plates. […] The IC50 value was calculated on the scavenging activity against DPPH radical.

[2] = Oxygen radical antioxidant capacity (ORAC) assay; conditions: Trolox equivalents; AAPH, fluorescein
Description: The ORAC assay was evaluated as previously described by Cao et al. with some modifications. 50 μL of samples or Trolox with different concentrations and the fluorescein solution was added to a 96-well microplate, which was incubated at 37°C for 10 min. […] The ORAC values were calculated by the regression equation between the Trolox concentration and the net area under the curve (expressed as μmol Trolox eq/μmol sample).

HepG2 cells = test: Cellular antioxidant activity (CAA) assay; format: cell-based; conditions: DCFH-DA 25 μM, ABAP 600 μM
Description: The CAA assay was tested as described previously. 6 × 10^4 cells/well of HepG2 cells were seeded at a 96-well microplate with 100 μL of growth medium/well. […] Then, the cells were washed with PBS and treated with 100 μL of 600 μM ABAP (dissolved in HBSS), and the 96-well microplate was immediately placed into an Infinite SpectraMax i3x Multi-Mode Detection plate-reader at 37°C. […]

Compound | IC50 [1] [µM] | EC50 (HepG2 cells; Homo sapiens) [µM] | ORAC values [2] [μmol TE/μmol] | EC50 (HepG2 cells) [µM]
O=C1c2c(O)cc(O)cc2O[C@H](c2cc(O)c(O)c(O)c2)[C@H]1O [compound 38, Dihydromyricetin] | > 200 | > 200 | 5.25 ± 0.02 | 
OC[C@H]1O[C@@H](Oc2cc3c(O)cc(O)cc3[o+]c2-c2ccc(O)c(O)c2)[C@H](O)[C@@H](O)[C@@H]1O.[Cl-] [compound 54, Cyanidin-3-O-glucoside chloride] | > 200 |  | 4.63 ± 0.14 | 43.8
Oc1cc(O)c2c(c1)O[C@H](c1ccc(O)c(O)c1)[C@H](O)C2 [compound 58, Epicatechin] | 96.03 ± 0.13 | > 200 | 4.83 ± 0.13 | 
C[C@@H]1O[C@@H](Oc2c(-c3ccc(O)c(O)c3)oc3cc(O)cc(O)c3c2=O)[C@H](O)[C@H](O)[C@H]1O [compound 28, Quercitrin] | 68.3 ± 1.37 | > 200 |  | 
C[C@@H]1O[C@@H](OC[C@H]2O[C@@H](Oc3cc(O)c4c(c3)O[C@H](c3ccc(O)cc3)CC4=O)[C@H](O)[C@@H](O)[C@@H]2O)[C@H](O)[C@H](O)[C@H]1O [compound 42, Narirutin] | > 200 | > 200 |  | 
Quercetin-3-O-rhamnoside [compound 27] | 47.7 |  |  | 22.8
O=C(CCc1ccc(O)cc1)c1c(O)cc(O)cc1O[C@@H]1O[C@H](CO)[C@@H](O)[C@H](O)[C@H]1O [compound 49, Phlorizin] | > 200 | > 200 | 6.43 ± 0.14 | 
Oc1cc(O)c2cc(O)c(-c3cc(O)c(O)c(O)c3)[o+]c2c1 [compound 52, Delphinidin chloride] | 36.8 ± 4.26 | 24.91 ± 0.12 | 5.02 ± 0.02 | 
COc1cc(-c2[o+]c3cc(O)cc(OC4OC(CO)C(O)C(O)C4O)c3cc2OC2OC(CO)C(O)C(O)C2O)cc(OC)c1O (stereo not shown) [compound 57, Malvin] | > 200 | > 200 | 4.32 ± 0.19 | 
Oc1cc(O)c2c(c1)OC(c1ccc(O)c(O)c1)C(O)C2 (stereo not shown) [compound 59, Catechin] | 130 ± 5.55 | > 200 | 4.93 ± 0.02 | 
OCC1OC(Oc2cc3c(OC4OC(CO)C(O)C(O)C4O)cc(O)cc3[o+]c2-c2ccc(O)c(O)c2)C(O)C(O)C1O (stereo not shown) [compound 53, Cyanin chloride] | > 200 | > 200 |  | 
O=c1c(O)c(-c2ccc(O[C@@H]3O[C@H](CO)[C@@H](O)[C@H](O)[C@H]3O)c(O)c2)oc2cc(O)cc(O)c12 [compound 17, Spiraeoside] | > 200 | > 200 |  | 
OCC1OC(Oc2cc3c(OC4OC(CO)C(O)C(O)C4O)cc(O)cc3[o+]c2-c2ccc(O)cc2)C(O)C(O)C1O (stereo not shown) [compound 55, Pelargonin chloride] | > 200 | > 200 |  | 
COc1cc(-c2oc3cc(O)cc(O)c3c(=O)c2O)ccc1O [compound 1, Isorhamnetin] | 126 ± 4.26 | 23.3 ± 1.38 |  | 
O=c1c(OC2OC(CO)C(O)C(O)C2O)c(-c2cc(O)c(O)c(O)c2)oc2cc(O)cc(O)c12 (stereo not shown) [compound 25, Myricetin-3-O-galactoside] | 82.4 ± 2.88 | > 200 |  | 
COc1ccc([C@@H]2CC(=O)c3c(O)cc(O[C@@H]4O[C@H](CO)[C@@H](O)[C@H](O)[C@H]4O[C@@H]4O[C@@H](C)[C@H](O)[C@@H](O)[C@H]4O)cc3O2)cc1O [compound 41, Neohesperidin] | > 200 |  |  | > 200
O=c1c(O[C@@H]2O[C@H](CO)[C@@H](O)[C@H](O)[C@H]2O)c(-c2ccc(O)c(O)c2)oc2cc(O)cc(O)c12 [compound 29, Isoquercitrin] | > 200 | > 200 |  | 
COc1ccc(-c2cc(=O)c3c(OC)c(OC)c(OC)c(OC)c3o2)cc1 [compound 19, Tangeretin] | > 200 | > 200 |  | 
O=c1c(OC2OC(CO)C(O)C(O)C2O)c(-c2ccc(O)c(O)c2)oc2cc(O)cc(O)c12 (stereo not shown) [compound 26, Quercetin-3-O-galactoside] | 53.3 | 45.9 | 4.05 ± 0.15 | 
C[C@@H]1O[C@@H](OC[C@H]2O[C@@H](Oc3c(-c4ccc(O)c(O)c4)oc4cc(O)cc(O)c4c3=O)[C@H](O)[C@@H](O)[C@@H]2O)[C@H](O)[C@H](O)[C@H]1O [compound 16, Rutin] | 70 ± 1.44 | > 200 |  | 
COc1ccc(CCC(=O)c2c(O)cc(O[C@@H]3O[C@H](CO)[C@@H](O)[C@H](O)[C@H]3O[C@@H]3O[C@@H](C)[C@H](O)[C@@H](O)[C@H]3O)cc2O)cc1O [compound 47, Neohesperidin dihydrochalcone] | > 200 | > 200 | 4.31 ± 0.01 | 
O=c1cc(-c2ccc(O)c(O)c2)oc2c([C@@H]3O[C@H](CO)[C@@H](O)[C@H](O)[C@H]3O)c(O)cc(O)c12 [compound 31, Orientin] | > 200 | > 200 |  | 
COc1ccc([C@@H]2CC(=O)c3c(O)cc(O[C@@H]4O[C@H](CO[C@@H]5O[C@@H](C)[C@H](O)[C@@H](O)[C@H]5O)[C@@H](O)[C@H](O)[C@H]4O)cc3O2)cc1O [compound 44, Hesperidin] | > 200 |  | 6.52 ± 0.15 | > 200
Myricitrin [compound 9] | 50.9 ± 2.14 |  |  | > 200

Continued, in another order:

IC50 [1] [µM] | EC50 (HepG2 cells; Homo sapiens) [µM] | Compound | ORAC values [2] [μmol TE/μmol] | EC50 (HepG2 cells) [µM]
73.2 ± 0.75 | 18.6 ± 0.61 | O=c1cc(-c2ccc(O)c(O)c2)oc2cc(O)cc(O)c12 [compound 23, Luteolin] | 4.27 ± 0.02 | 
> 200 | > 200 | O=C1C[C@@H](c2ccc(O)cc2)Oc2cc(O)ccc21 [compound 46, Liquiritigenin] |  | 
> 200 | > 200 | COc1ccc([C@@H]2CC(=O)c3c(O)cc(O)cc3O2)cc1O [compound 43, Hesperetin] |  | 
> 200 | 31.2 ± 0.86 | O=c1c(O)c(-c2ccccc2)oc2cc(O)cc(O)c12 [compound 34, Galangin] |  | 
> 200 | 11 ± 0.25 | O=c1c(O)c(-c2ccc(O)cc2)oc2cc(O)cc(O)c12 [compound 6, Kaempferol] | 4.17 ± 0.06 | 
> 200 | > 200 | O=C1c2c(O)cc(O)cc2O[C@H](c2ccc(O)cc2O)[C@H]1O [compound 40, Dihydromorin] | 5.29 ± 0.05 | 
> 200 | > 200 | O=c1cc(-c2ccc(O)cc2)oc2cc(O)cc(O)c12 [compound 22, Apigenin] | 4.27 ± 0.02 | 
> 200 | > 200 | O=C1C[C@@H](c2ccc(O)cc2)Oc2cc(O)cc(O)c21 [compound 45, Naringenin] | 4.62 ± 0.13 | 
 | > 200 | O=C(/C=C/c1ccc(O)cc1)c1ccc(O)cc1O [compound 50, Isoliquiritigenin] |  | 
> 200 | 15.2 ± 0.32 | O=c1c(O)c(-c2ccc(O)cc2O)oc2cc(O)cc(O)c12 [compound 4, Morin] | 5.98 ± 0.01 | 
> 200 | 30.96 ± 0.2 | O=C(CCc1ccc(O)cc1)c1c(O)cc(O)cc1O [compound 48, Phloretin] |  | 
> 200 | 42.5 ± 0.24 | O=c1cc(-c2ccccc2)oc2cc(O)c(O)c(O)c12 [compound 21, Baicalein] |  | 
> 200 | > 200 | O=c1cc(-c2ccccc2)oc2cc(O)cc(O)c12 [compound 20, Chrysin] |  | 
> 200 | > 200 | O=c1c(O)c(-c2ccc(OC3O[C@H](CO)[C@@H](O)[C@H](O)[C@H]3O)cc2)oc2cc(O)cc(O)c12 (stereo partly shown) [compound 12, Kaempferol-4′-O-glucopyranoside] |  | 
45.1 ± 2.12 | > 200 | O=c1c(O[C@@H]2O[C@H](CO)[C@H](O)[C@H](O)[C@H]2O)c(-c2ccc(O)cc2)oc2cc(O)cc(O)c12 [compound 11, Trifolin] | 2.06 ± 0.01 | 
> 200 | > 30 | COc1ccc(-c2oc3cc(O)cc(O)c3c(=O)c2O)cc1 [compound 3, Kaempferide] |  | 
70.8 ± 2.31 | 19.16 ± 0.16 | Oc1cc(O)c2cc(O)c(-c3ccc(O)c(O)c3)[o+]c2c1 [compound 51, Cyanidin chloride] | 5.71 ± 0.03 | 
> 200 | > 200 | COc1ccc(-c2cc(=O)c3c(O)cc(O)cc3o2)cc1O [compound 36, Diosmetin] | 5.02 ± 0.14 | 
> 200 | > 200 | COc1cc(O)c2c(=O)cc(-c3ccc(O)cc3)oc2c1 [compound 37, Genkwanin] |  | 
21.5 ± 1.9 | 8.77 ± 0.09 | O=c1c(O)c(-c2ccc(O)c(O)c2)oc2cc(O)cc(O)c12 [compound 7, Quercetin, reference compound] | 5.52 ± 0.04 | 
59.6 ± 3.12 | > 200 | O=C1c2c(O)cc(O)cc2OC(c2ccc(O)c(O)c2)C1O (stereo not shown) [compound 39, Taxifolin] | 5.26 ± 0.04 | 
> 200 | > 200 | O=c1cc(-c2ccc(O)cc2)oc2cc(O)c([C@@H]3O[C@H](CO)[C@@H](O)[C@H](O)[C@H]3O)c(O)c12 [compound 33, Isovitexin] |  | 

Source: PMC7525318, “Identification of Six Flavonoids as Novel Cellular Antioxidants and Their Structure-Activity Relationship” (Oxidative Medicine and Cellular Longevity, 2020)
